Measurements published in patent publication US20130195886A1, “Methods for Fructanase and Fructokinase Inhibition” (The Regents of the University of Colorado, A Body Corporate, priority 2011, published 2013).

Experiments:
[1] = molecular target: T1, KHKA (Homo sapiens, UniProt P50053); assay: KHKA % inhibition of virtual-screen hits; conditions: for inhibition at 10 µM: read-out: KHKA % Inhibition (10 µM)
T1 sequence (P50053 1-298 isoform P50053-2): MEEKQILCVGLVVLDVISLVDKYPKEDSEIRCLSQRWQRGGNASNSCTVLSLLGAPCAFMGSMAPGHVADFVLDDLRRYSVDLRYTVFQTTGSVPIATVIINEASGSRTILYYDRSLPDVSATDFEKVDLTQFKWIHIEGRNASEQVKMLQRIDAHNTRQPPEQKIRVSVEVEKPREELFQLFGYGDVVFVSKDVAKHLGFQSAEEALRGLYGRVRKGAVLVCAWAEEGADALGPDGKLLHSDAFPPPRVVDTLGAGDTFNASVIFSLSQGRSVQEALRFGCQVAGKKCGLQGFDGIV

[2] = molecular target: T2, KHKC (Homo sapiens, UniProt P50053); assay: KHKC % inhibition of virtual-screen hits; conditions: for KHKC % Inhibition (10 UM): 10 uM compound; for inhibition at 10 µM: read-out: KHKC % Inhibition (10 µM)
T2 sequence (P50053 1-298): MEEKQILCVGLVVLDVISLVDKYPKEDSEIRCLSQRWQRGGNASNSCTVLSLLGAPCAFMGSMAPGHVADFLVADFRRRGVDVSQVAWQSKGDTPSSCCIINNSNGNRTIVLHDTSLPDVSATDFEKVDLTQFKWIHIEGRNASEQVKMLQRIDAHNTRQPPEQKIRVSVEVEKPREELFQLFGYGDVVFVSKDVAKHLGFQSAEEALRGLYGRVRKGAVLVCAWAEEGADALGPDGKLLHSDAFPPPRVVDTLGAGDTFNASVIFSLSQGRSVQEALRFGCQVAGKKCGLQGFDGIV

[3] = system: human intestinal epithelial cells (CaCo-2); assay: fructose exposure of intestinal epithelial cells, polarity and tight junction expression; format: cell-based
[4] = system: wild type (WT) mice; assay: fructose feeding, duodenum quantitative real time PCR; format: in vivo; conditions: 15% fructose water 3 weeks, actin control
Description: In the first set of studies, three-month-old male wild type (WT) mice or fructokinase A/C knockout mice (KHK-A/C KO) (obtained from David Bonthron, Leeds, UK)(72) were administered fructose with normal chow for 3 weeks. […] Due to the different preference for fructose water between WT mice and KHK-A/C KO mice, mice were given 15% or 30% of fructose water, respectively. Both WT mice and KHK-A/C KO mice drank the same amount of fructose (FIG. 4A). For each group, the duodenum was removed after 20 hours of fasting of normal chow and the lining scraped and RNA extracted. Quantitative real time PCR was performed for fructokinase C (KHK-C, FIG. 4B), and tight junction genes occludin (FIG. 4C) and ZO-1 (FIG. 4D) using actin as an internal control.

[5] = system: allergy-susceptible mice (lacking the toll-like receptor 4); assay: Experiment 1: peanut food allergy sensitisation and challenge; format: in vivo; conditions: fructose 30% in water added to peanuts plus cholera toxin
[6] = system: mice; format: in vivo; conditions: fructose (30%) vs no fructose, p<0.02 Mann Whitney

CSc1nn(-c2ccccc2)cc1/C(N)=N/OC(=O)Nc1ccc(OC(F)(F)F)cc1 [Cpd 1]
KHKA % Inhibition (10 UM) ([1]; 10 uM compound): 7.0% | inhibition at 10 µM [1]: 7% | KHKC % Inhibition (10 UM) [2]: 25.6% | inhibition at 10 µM [2]: 25.6%

CSc1nn(-c2ccccc2)c(N)c1C#N [Cpd 2]
KHKA % Inhibition (100 uM) ([1]; 100 uM compound): 29.4% | inhibition at 10 µM [1]: 5.7% | inhibition at 100 µM ([1]; read-out: KHKA % Inhibition (100 uM)): 29.4% | KHKC % Inhibition (100 uM) ([2]; 100 uM compound): 16.8% | inhibition at 10 µM [2]: 7.8% | inhibition at 100 µM ([2]; read-out: KHKC % Inhibition (100 uM)): 16.8%

CSc1nn(-c2ccccc2)cc1-c1nc(-c2ccccc2)cs1 [Cpd 3]
KHKC % Inhibition (10 UM) [2]: 19.9% | inhibition at 10 µM [2]: 19.9%

O=C(CO)[C@@H](O)[C@H](O)[C@H](O)CO [fructose]
expression of genes involved in the maintenance of cell polarity ([3]; 5 mM fructose): markedly decreased | expression of transmembrane (claudin-4) and scaffolding (ZO-1 and occluding) proteins at the tight junctions ([3]; fructose exposure): substantially down-regulated | localisation of polarity/tight junction proteins (confocal analysis) ([3]; fructose exposure): translocates them intracellularly from the basolateral membrane domain | expression of e-cadherin ([3]; fructose for 96 hours): dramatically down-regulated | KHK mRNA expression [4]: upregulation | ZO-1 mRNA [4]: significant decrease | occludin mRNA [4]: significant decrease | fall in temperature, group 3 compared to group 1 [5]: greater fall in temperature | symptoms, group 3 compared to group 1 [5]: numerically worse symptoms | peanut IgE levels [6]: higher
